Reference: patent publication US11911610B2, “Methods for restoring sensitivity to TTFields in TTFields-resistant cancer cells with PTGER3 inhibitors” (Novocure GmbH, priority 2019, dated 2024)

Assays:
[1] = test system: human GBM cell lines (LN827); assay: Resistant cell line generation experiment with PTGER3 inhibitor (FIG. 16); assay type: cell-based; details: L798,106 + TTFields, 5 cycles of 7 days
From the text: For the experiments summarized in FIG. 2, TTFields-resistant human GBM cell lines were generated by seeding LN827 cells at a density of 10,000/ml and treated with TTFields for in repeated 1-week cycles at a frequency of 200 kHz. For each cycle, cells were counted on day 2, day 4 and day 7. At the end of each cycle, the cells were re-seeded at the same density as on day 0, harvested and processed for RNAseq and cryopreservation for future analysis. Resistant cells emerged after at least four weeks of TTFields treatment.
The resistant cell line generation experiment using the original human GBM cell lines from FIG. 2 was repeated with two more groups that included a PTGER3 inhibitor (L798,106 and L798,106+TTFields) (FIG. 16). […] Cells were seeded and counted at the same cell density and time points. Each cycle lasts for 7 days within total of 5 cycles.

U87R resistant cells = assay: Live cell count of TTFields-resistant GBM cells treated with drug with or without TTFields for 3 days; assay type: cell-based, human; details: for sensitivity to TTFields: inhibitor + TTFields 200 kHz compared with TTFields alone, FIG. 14
Procedure: (§1) For the experiments summarized in FIG. 13, resistant human GBM cells were treated with either vehicle control or aspirin and with or without TTFields for 3 days. Drug was replenished daily. The numbers of live cells were quantified using a cell counter at the end point.
PTGER3 inhibitors can restore sensitivity to TTFields.

LN827R cells = assay: as above; assay type: cell-based, human; details: aspirin + TTFields, drug replenished daily, reduced from around 125 k/dish, TTFields alone increased count slightly
Procedure: as §1

LN428R resistant cells = assay: as above; assay type: cell-based, human; details: aspirin + TTFields, drug replenished daily, reduced from 85 k/dish, TTFields alone 70 k/dish
Procedure: as §1

[2] = test system: TTFields-resistant GBM cells (U87R, L428R, and LN827R); assay: Reduction of resistance to TTFields in TTFields-resistant GBM cells (FIG. 13); assay type: cell-based, human; details: Aspirin+TTFields compared with Vehicle+TTFields, 3 days
Procedure: as §1

Row | SMILES | development of resistance to TTFields [1] | live cell count (U87R resistant cells; L798,106 0.5 μM + TTFields 200 kHz, reduced from around 200 k/dish, TTFields alone 125 k/dish) | sensitivity to TTFields (U87R resistant cells) | live cell count (LN827R cells) | live cell count (LN428R resistant cells) | live cell count (U87R resistant cells; aspirin + TTFields, drug replenished daily, reduced from 150 k/dish, TTFields alone 125 k/dish) | resistance to TTFields [2] | live cell count (U87R resistant cells; DG041 50 nM + TTFields 200 kHz, reduced from around 160 k/dish, TTFields alone 100 k/dish)
1 | COc1ccc(Br)cc1S(=O)(=O)NC(=O)/C=C/c1ccccc1Cc1ccc2ccccc2c1 [L798,106] | prevented the development of resistance to TTFields | 25 k/dish | restores sensitivity to TTFields | – | – | – | – | –
2 | CC(=O)Oc1ccccc1C(=O)O [aspirin] | – | – | – | 90 k/dish | 40 k/dish | 100 k/dish | significantly reduces resistance to TTFields | –
3 | Cc1cn(Cc2ccc(Cl)cc2Cl)c2c(/C=C/C(=O)NS(=O)(=O)c3cc(Cl)c(Cl)s3)cc(F)cc12 [DG041] | – | – | restores sensitivity to TTFields | – | – | – | – | around 40 k/dish
